Test [1] has as its target T1, recombinant METTL3/METTL14 complex (Homo sapiens, UniProt Q86U44).
T1 construct: purchased Active Motif 311970; host or cells: Sf9 cells
Briefly: METTL3/14 Scintillation Proximity Assay (SPA), RNA methyltransferase activity. It is filed as biochemical. The conditions noted are these: 5.31 nM METTL3/14 complex, 250 nM RNA substrate, 1 μM 3H-SAM, 90 min; for compounds marked * best of the two separated forms.

The test system of test [2] is Caov-3 cells. The test can be described thus: Caov-3 cellular viability assay (ATP-Lite, 72 h). It is filed as cell-based. Particulars: Homo sapiens, ATP-Lite luminescence, % viability relative to DMSO. A digest of the protocol: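 IC50 values come from concentration-response fits of luminescent ATP content (ATP-Lite One Step), normalised as % viability versus DMSO. Compound exposure was 72 h at 37 °C in RPMI-1640/10% FBS with 0.1% final DMSO. Wells held 10000 cells each.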

Test [3] relates to Kasumi-1 cells. The test can be described thus: Kasumi-1 cellular viability assay (ATP-Lite, 72 h). Particulars: Homo sapiens, ATP-Lite luminescence, % viability relative to DMSO. The test is classed as cell-based. In short, it runs like this:
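Viability was read by ATP-Lite One Step luminescence after 72 h compound treatment at 37 °C/5% CO2, normalised to DMSO control, with IC50 fitted from concentration-response. Cells were Kasumi-1 (AML FAB M2) at 15000 per well in RPMI-1640/10% FBS, 0.1% DMSO final.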

pIC50: −log10 of the molar value.

This passage reports IC50 results from patent US20250002475A1 (EPICS THERAPEUTICS, priority 2023, published 2025).

T1 sequence (Q86U44 whole entry): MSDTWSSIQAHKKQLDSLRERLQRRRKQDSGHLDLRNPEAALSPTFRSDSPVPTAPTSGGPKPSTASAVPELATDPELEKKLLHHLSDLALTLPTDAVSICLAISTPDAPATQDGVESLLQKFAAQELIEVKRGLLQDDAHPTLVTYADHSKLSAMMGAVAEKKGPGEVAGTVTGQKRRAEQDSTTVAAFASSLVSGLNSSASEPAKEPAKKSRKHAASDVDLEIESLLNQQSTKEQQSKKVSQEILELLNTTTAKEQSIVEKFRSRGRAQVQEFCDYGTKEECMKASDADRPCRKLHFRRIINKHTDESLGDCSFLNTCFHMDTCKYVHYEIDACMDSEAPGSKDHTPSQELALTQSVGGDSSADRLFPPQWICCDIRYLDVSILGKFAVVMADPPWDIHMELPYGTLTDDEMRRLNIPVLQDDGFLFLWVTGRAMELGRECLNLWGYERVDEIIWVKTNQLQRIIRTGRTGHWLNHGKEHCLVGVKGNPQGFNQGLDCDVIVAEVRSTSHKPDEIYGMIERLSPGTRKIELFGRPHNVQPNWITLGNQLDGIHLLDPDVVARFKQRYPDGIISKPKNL
T1 sequence (Q9HCE5 whole entry partner): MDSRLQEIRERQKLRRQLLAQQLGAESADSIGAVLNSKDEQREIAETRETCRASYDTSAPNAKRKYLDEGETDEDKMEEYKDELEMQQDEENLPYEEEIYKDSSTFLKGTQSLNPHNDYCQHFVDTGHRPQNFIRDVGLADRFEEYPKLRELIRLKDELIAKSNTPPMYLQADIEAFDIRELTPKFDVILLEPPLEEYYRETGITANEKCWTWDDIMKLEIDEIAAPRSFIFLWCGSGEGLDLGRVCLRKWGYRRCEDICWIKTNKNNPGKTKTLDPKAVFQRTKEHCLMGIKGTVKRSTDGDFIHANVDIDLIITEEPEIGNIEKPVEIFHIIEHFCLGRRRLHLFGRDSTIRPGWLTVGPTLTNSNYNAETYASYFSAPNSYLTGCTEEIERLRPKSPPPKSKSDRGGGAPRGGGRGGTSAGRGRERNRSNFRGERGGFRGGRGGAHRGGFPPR

Regarding `CC1(CN[C@@H]2CCCN(c3ccc(C4(c5nnc(-c6cncc(C7CC7)c6)s5)COC4)nc3)C2)CC1` [Compound 368, (R)-1-(6-(3-(5-(5-cyclopropylpyridin-3-yl)-1,3,4-thiadiazol-2-yl)oxetan-3-yl)pyridin-3-yl)-N-((1-methylcyclopropyl)methyl)piperidin-3-amine], the pIC50 in test [1] was at least 7.30; in test [2], at least 6.30; in test [3], at least 6.30.
Take `CC(c1ccc(N2CCC[C@@H](NCC3CC3)C2)cn1)n1cc(-c2cncc(N3CCCC3)n2)nn1` (single isomer, unassigned) [Compound 259]: the pIC50 in test [1] was at least 7.30; in test [2], at least 6.30; in test [3] it was at least 6.30.
For `CC(n1cc(-c2cncc(N3CC[C@@H](C)C3)n2)nn1)n1ccc(N2CCC[C@@H](NCC3CC3)C2)cc1=O` (single isomer, unassigned) [Compound 238], the results for the pIC50 in test [1], in test [2] and in test [3] were at least 7.30, at least 6.30 and at least 6.30, respectively.
As for `c1ncc(C2CC2)cc1-c1nnc(Cc2ccc(N3CCC[C@@H](NCC4CC4)C3)cn2)s1` [Compound 362, (R)-N-(cyclopropylmethyl)-1-(6-((5-(5-cyclopropylpyridin-3-yl)-1,3,4-thiadiazol-2-yl)methyl)pyridin-3-yl)piperidin-3-amine], the pIC50 in test [1] is at least 7.30; in test [2] it was at least 6.30; in test [3] it was at least 6.30.
Turning to `O=c1cc(-c2cn(Cc3ccc(N4CCC[C@@H](NCC5CCC5)C4)nn3)nn2)nc2ccccn12` [Compound 017, (R)-2-(1-((6-(3-((cyclobutylmethyl)amino)piperidin-1-yl)pyridazin-3-yl)methyl)-1H-1,2,3-triazol-4-yl)-4H-pyrido[1,2-a]pyrimidin-4-one], the results for the pIC50 in test [1], in test [2] and in test [3] were at least 7.30, under 5.30 and under 5.30, respectively.
In the case of `CC(c1ccc(N2CCC[C@@H](NCC3CC3)C2)nn1)c1nnc(-c2cncc(N3CCCC3)n2)o1` (single isomer, unassigned) [Compound 347], the pIC50 was at least 7.30 in test [1], 5.30 to 6.30 in test [2] and 5.30 to 6.30 in test [3].
Regarding `CC(n1cc(-c2cncc(N3CCCC3)c2)nn1)n1ccc(N2CCC[C@@H](NCC3CC3)C2)cc1=O` (single isomer, unassigned) [Compound 176], the negative-log IC50 (pIC50) in test [1] was at least 7.30; in test [2], at least 6.30; in test [3] it was at least 6.30.
For the compound `CN(C)c1cncc(-c2cn(Cc3ccc(N4CCC[C@@H](NCC5CCC5)C4)cc3)nn2)c1` [Compound 140], the pIC50 is at least 7.30 in test [1], at least 6.30 in test [2] and at least 6.30 in test [3].
As for `c1ncc(N2CCCC2)cc1-c1cn(C2(c3ccc(N4CCC[C@@H](NCC5CC5)C4)cn3)COC2)nn1` [Compound 194, (R)-N-(cyclopropylmethyl)-1-(6-(3-(4-(5-(pyrrolidin-1-yl)pyridin-3-yl)-1H-1,2,3-triazol-1-yl)oxetan-3-yl)pyridin-3-yl)piperidin-3-amine], the negative logarithm of the IC50 (pIC50) was at least 7.30 in test [1], at least 6.30 in test [2] and at least 6.30 in test [3].
As for `COc1cc(-c2cn(Cc3ccc(N4CCCC(N5CCC(C)(C)CC5)C4)nn3)nn2)c2cn[nH]c2c1` (stereo not drawn) [Compound 006, 4-(1-((6-(4,4-dimethyl-[1,3′-bipiperidin]-1′-yl)pyridazin-3-yl)methyl)-1H-1,2,3-triazol-4-yl)-6-methoxy-1H-indazole], the negative logarithm of the IC50 (pIC50) in test [1] is at least 7.30; in test [2], 5.30 to 6.30; in test [3], 5.30 to 6.30.
For the compound `c1cc(C2(n3cc(-c4cncc(N5CCCC5)n4)nn3)COC2)ncc1N1CCC[C@@H](NCC2CC2)C1` [Compound 185, (R)-N-(cyclopropylmethyl)-1-(6-(3-(4-(6-(pyrrolidin-1-yl)pyrazin-2-yl)-1H-1,2,3-triazol-1-yl)oxetan-3-yl)pyridin-3-yl)piperidin-3-amine], the pIC50 is at least 7.30 in test [1], at least 6.30 in test [2] and at least 6.30 in test [3].
For `COc1cnc(C#N)c(-c2cn(Cc3ccc(N4CCC[C@@H](NCC5CCC5)C4)nn3)nn2)c1` [Compound 019, (R)-3-(1-((6-(3-((cyclobutylmethyl)amino)piperidin-1-yl)pyridazin-3-yl)methyl)-1H-1,2,3-triazol-4-yl)-5-methoxypicolinonitrile], the negative-log IC50 (pIC50) in test [1] is at least 7.30; in test [2], under 5.30; in test [3], under 5.30.
As to `O=C(NCc1ccc(N2CCCC(NCC34CC(F)(C3)C4)C2)nn1)c1cc(=O)n2ccccc2n1` (stereo not drawn) [Compound 011, N-((6-(3-(((3-fluorobicyclo[1.1.1]pentan-1-yl)methyl)amino)piperidin-1-yl)pyridazin-3-yl)methyl)-4-oxo-4H-pyrido[1,2-a]pyrimidine-2-carboxamide], the results for the negative logarithm of the IC50 (pIC50) in test [1], in test [2] and in test [3] were 6.30 to 7.30, under 5.30 and under 5.30, respectively.
Regarding `CC(n1cc(-c2cncc(N3CC4(C3)CC4(F)F)c2)nn1)n1ccc(N2CCC[C@@H](NCC3CC3)C2)cc1=O` (single isomer, unassigned) [Compound 211], the negative logarithm of the IC50 (pIC50) in test [1] is at least 7.30; in test [2], at least 6.30; in test [3] it was at least 6.30.
Regarding `c1cc(N2CCC[C@@H](NCC3CCC3)C2)ccc1Cn1cc(-c2cncc(N3CCCC3)n2)nn1` [Compound 287, (R)-N-(cyclobutylmethyl)-1-(4-((4-(6-(pyrrolidin-1-yl)pyrazin-2-yl)-1H-1,2,3-triazol-1-yl)methyl)phenyl)piperidin-3-amine], the negative-log IC50 (pIC50) in test [1] was at least 7.30; in test [2] it was at least 6.30; in test [3], at least 6.30.
`CC(c1ccc(N2CCC[C@@H](NCC3(C)CC3)C2)nn1)n1cnc(-c2cncc(N3CCCC3)n2)c1` (single isomer, unassigned) [Compound 348]: the pIC50 is at least 7.30 in test [1], at least 6.30 in test [2] and at least 6.30 in test [3].
Take `c1cc(C2(n3cc(-c4cncc(N5CC6(COC6)C5)n4)nn3)COC2)ncc1N1CCC[C@@H](NCC2CC2)C1` [Compound 221, (R)-1-(6-(3-(4-(6-(2-oxa-6-azaspiro[3.3]heptan-6-yl)pyrazin-2-yl)-1H-1,2,3-triazol-1-yl)oxetan-3-yl)pyridin-3-yl)-N-(cyclopropylmethyl)piperidin-3-amine]: the values for the pIC50 in test [1], in test [2] and in test [3] were at least 7.30, 5.30 to 6.30 and 5.30 to 6.30, respectively.
Turning to `COc1cncc(-c2cn(C3(c4ccc(N5CCC[C@@H](NCC6CCC6)C5)cn4)COC3)cn2)c1` [Compound 267, (R)-N-(cyclobutylmethyl)-1-(6-(3-(4-(5-methoxypyridin-3-yl)-1H-imidazol-1-yl)oxetan-3-yl)pyridin-3-yl)piperidin-3-amine], the figures for the negative-log IC50 (pIC50) in test [1], in test [2] and in test [3] were at least 7.30, 5.30 to 6.30 and 5.30 to 6.30, respectively.
Consider `c1ncc(C2CC2)cc1-c1cn(C2(c3ccc(N4CCC[C@@H](NC5CCC5)C4)cn3)COC2)nn1` [Compound 334, (R)-N-cyclobutyl-1-(6-(3-(4-(5-cyclopropylpyridin-3-yl)-1H-1,2,3-triazol-1-yl)oxetan-3-yl)pyridin-3-yl)piperidin-3-amine], for which the negative logarithm of the IC50 (pIC50) in test [1] was at least 7.30; in test [2] it was at least 6.30; in test [3], at least 6.30.
As to `c1ncc(-c2cn(C3(c4ccc(N5CCC[C@@H](NCC6CC6)C5)cn4)COC3)nn2)cc1CC1CC1` [Compound 346, (R)-N-(cyclopropylmethyl)-1-(6-(3-(4-(5-(cyclopropylmethyl)pyridin-3-yl)-1H-1,2,3-triazol-1-yl)oxetan-3-yl)pyridin-3-yl)piperdin-3-amine], the negative-log IC50 (pIC50) in test [1] was at least 7.30; in test [2], at least 6.30; in test [3] it was at least 6.30.
Turning to `CN(CC1CCC1)[C@@H]1CCCN(c2ccc(C3(C(=O)Nc4cc(=O)n5ccccc5n4)COC3)nc2)C1` [Compound 272, (R)-3-(5-(3-((cyclobutylmethyl)(methyl)amino)piperidin-1-yl)pyridin-2-yl)-N-(4-oxo-4H-pyrido[1,2-a]pyrimidin-2-yl)oxetane-3-carboxamide], the figures for the pIC50 in test [1], in test [2] and in test [3] were at least 7.30, 5.30 to 6.30 and 5.30 to 6.30, respectively.
Turning to `C[C@@H]1CCN(c2cncc(-c3cn(C4(c5ccc(N6CCC[C@@H](NCC7CC7)C6)cn5)COC4)nn3)n2)C1` [Compound 244, (R)-N-(cyclopropylmethyl)-1-(6-(3-(4-(6-((R)-3-methylpyrrolidin-1-yl)pyrazin-2-yl)-1H-1,2,3-triazol-1-yl)oxetan-3-yl)pyridin-3-yl)piperidin-3-amine], the pIC50 is at least 7.30 in test [1], at least 6.30 in test [2] and at least 6.30 in test [3].
Consider `CC(c1ccc(N2CCC[C@@H](NCC3CCC3)C2)cn1)c1cnc(-c2cncc(N(C)C)c2)s1` (single isomer, unassigned) [Compound 169], for which the negative logarithm of the IC50 (pIC50) is at least 7.30 in test [1], at least 6.30 in test [2] and at least 6.30 in test [3].
In the case of `CC(c1ccc(N2CCC[C@@H](NCC3CCC3)C2)cn1)n1cc(-c2cncc(N3CC4CC4C3)n2)nn1` (single isomer, unassigned) [Compound 286], the pIC50 in test [1] was at least 7.30; in test [2], at least 6.30; in test [3], at least 6.30.
Consider `CC(c1nnc(-c2cncc(N(C)C)c2)s1)n1ccc(N2CCC[C@@H](NCC3CCC3)C2)cc1=O` (stereo partly drawn) [Compound 171, 4-((R)-3-((cyclobutylmethyl)amino)piperidin-1-yl)-1-(1-(5-(5-(dimethylamino)pyridin-3-yl)-1,3,4-thiadiazol-2-yl)ethyl)pyridin-2(1H)-one], for which the pIC50 was at least 7.30 in test [1], at least 6.30 in test [2] and at least 6.30 in test [3].
